# Tests used:
# [1] = tested on: T cells expressing anti-CD19 CAR/PSMA^(N9del); test: Cytokine release in co-culture in the presence of DCFPyL; assay type: cell-based, human; conditions: E:T 4:1 and 1:1; eight 3-fold serial dilutions of DCFPyL starting from 1×10^−5 M
# Method: Specifically, accumulated amounts (pg/mL) of cytokine(s) (IL-2, IFN-gamma, TNF-alpha) were assessed following incubation of the target cells and the various populations of engineered cells, for a period of approximately 22-24 hours. Such assays provided a measure of antigen-specific cytokine secretion per CAR+ cell in the dose. In other assays, cytolytic activity against CD19-expressing target cells was assessed after incubation with the T cells.
# Cytokine amounts in culture supernatants were determined using a multiplex cytokine immunoassay (Luminex®).
# [2] = tested on: T cells expressing anti-CD19 CAR/PSMA^(N9del); test: Cytolytic assay in the presence of DCFPyL; assay type: cell-based, human; conditions: E:T 4:1; seven 3-fold serial dilutions of DCFPyL starting from 3.33×10^−6 M
# Method: Cytolytic activity was assessed by measuring the loss of viable target cells over a period of three days, as determined by red fluorescent signal (using the IncuCyte® Live Cell Analysis System, Essen Bioscience). The number of NLR+ target cells was determined every 2 hours over time from 0 hours to 66 hours. Where indicated, a killing index was determined as 1/area under the curve (AUC) of the NLR+ target cell count over time, from 0 hours to 66 hours.
# Specifically, co-cultures were incubated with DCFPyL at one of seven (7) 3-fold serial dilutions of DCFPyL starting from 3.33×10^−6 M, or were incubated without DCFPyL (0 M).
smiles,measurement,setting,value
"O=C(O)CCC(NC(=O)NC(CCCCNC(=O)c1ccc(F)nc1)C(=O)O)C(=O)O (centres unmarked) [DCFPyL, 2-(3-{1-carboxy-5-[(6-fluoro-pyridine-3-carbonyl)-amino]-pentyl}-ureido)-pentanedioicacid]",effect on IFN-γ production,[1],did not substantially affect
same,effect on cytolytic activity of T cells expressing anti-CD19 CAR/PSMA^(N9del),[2],did not affect

# Source: US20230190796A1, “ENGINEERED CELLS EXPRESSING PROSTATE-SPECIFIC MEMBRANE ANTIGEN (PSMA) OR A MODIFIED FORM THEREOF AND RELATED METHODS” (Juno Therapeutics, Inc., priority 2017, published 2023)
